From ChEMBL document CHEMBL1124150, “cis-4-Carboxy-6-(mercaptomethyl)-3,4,5,6-tetrahydropyrimidin-2(1 H)-one , a potent inhibitor of mammalian dihydroorotase” (J Med Chem, 1988)

Assays:
[1] = system: B16; assay: In vitro antiproliferative activity against Murine B16 Melanoma cells in presence of 1 mM uridine at a dose of 0.5 mM; format: functional, Mus musculus
[2] = system: B16; assay: In vitro antiproliferative activity against Murine B16 Melanoma cells without uridine at a dose of 0.5 mM; format: functional, Mus musculus
[3] = system: B16; assay: In vitro antiproliferative activity against Murine B16 Melanoma cells without uridine at a dose of 2 mM; format: functional, Mus musculus
[4] = system: B16; assay: In vitro antiproliferative activity against Murine B16 Melanoma cells in presence of 1 mM uridine at a dose of 0.12 mM; format: functional, Mus musculus
[5] = system: B16; assay: In vitro antiproliferative activity against Murine B16 Melanoma cells without uridine at a dose of 0.12 mM; format: functional, Mus musculus
[6] = system: B16; assay: In vitro antiproliferative activity against Murine B16 Melanoma cells in presence of 1 mM uridine at a dose of 2 mM; format: functional, Mus musculus
[7] = system: B16; assay: In vitro antiproliferative activity against Murine B16 Melanoma cells in presence of 1 mM uridine at a dose of 0.25 mM; format: functional, Mus musculus
[8] = system: B16; assay: In vitro antiproliferative activity against Murine B16 Melanoma cells without uridine at a dose of 0.25 mM; format: functional, Mus musculus
[9] = system: B16; assay: In vitro antiproliferative activity against Murine B16 Melanoma cells without uridine at a dose of 1 mM; format: functional, Mus musculus
[10] = system: B16; assay: In vitro antiproliferative activity against Murine B16 Melanoma cells in presence of 1 mM uridine at a dose of 1 mM; format: functional, Mus musculus
[11] = Dissociation constant was determined; format: physicochemical
[12] = system: B16; assay: In vitro antiproliferative activity against Murine B16 Melanoma cells without uridine at a dose of 0.01 mM; format: functional, Mus musculus
[13] = system: B16; assay: In vitro antiproliferative activity against Murine B16 Melanoma cells in presence of 1 mM uridine at a dose of 0.01 mM; format: functional, Mus musculus
[14] = system: B16; assay: In vitro antiproliferative activity against Murine B16 Melanoma cells without uridine at a dose of 10 mM; format: functional, Mus musculus
[15] = system: B16; assay: In vitro antiproliferative activity against Murine B16 Melanoma cells without uridine at a dose of 0.1 mM; format: functional, Mus musculus
[16] = system: B16; assay: In vitro antiproliferative activity against Murine B16 Melanoma cells in presence of 1 mM uridine at a dose of 0.1 mM; format: functional, Mus musculus
[17] = system: B16; assay: In vitro antiproliferative activity against Murine B16 Melanoma cells in presence of 1 mM uridine at a dose of 10 mM; format: functional, Mus musculus

COC(=O)[C@@H]1C[C@H](CSC(C)=O)NC(=O)N1 (relative stereo)
Growth inhibition [1]: 9% | Growth inhibition [2]: 28% | Growth inhibition [3]: 96% | Growth inhibition [4]: 0% | Growth inhibition [5]: 0% | Growth inhibition [6]: 98% | Growth inhibition [7]: 2% | Growth inhibition [8]: 2% | Growth inhibition [9]: 94% | Growth inhibition [10]: 83%

O=C1N[C@@H](CS)C[C@@H](C(=O)O)N1 (relative stereo)
Growth inhibition [1]: 4% | Growth inhibition [2]: 14% | Growth inhibition [3]: 22% | Growth inhibition [4]: 0% | Ki [11]: 200 nM | Growth inhibition [5]: 4% | Growth inhibition [6]: 18% | Growth inhibition [7]: 3% | Growth inhibition [8]: 9% | Growth inhibition [9]: 17% | Growth inhibition [10]: 12%

O=C(O)C[C@H](NC(=O)CP(=O)(O)O)C(=O)O [PALA]
Growth inhibition [12]: 16% | Growth inhibition [13]: 6% | Growth inhibition [14]: 84% | Growth inhibition [15]: 79% | Growth inhibition [16]: 6% | Growth inhibition [9]: 86% | Growth inhibition [17]: 10% | Growth inhibition [10]: 9%
